Data set [1] relates to MERS-CoV. As to the kind of experiment: microbe, parasite or virus in culture. In kind it is cell-based. As to conditions: Middle East respiratory syndrome-related coronavirus, Calu-3 2B4, read-out: EC50 against MERS-CoV.
The subject of data set [2] is SARS-CoV-2 nLUC. As to the kind of experiment: microbe, parasite or virus in culture. In kind it is cell-based. As to conditions: for inhibition at 0.00152 µM: drug 0.00152 µM; for inhibition at 0.00457 µM: drug 0.00457 µM; for inhibition at 0.01372 µM: drug 0.01372 µM; for inhibition at 0.04115 µM: drug 0.04115 µM; for inhibition at 0.37037 µM: drug 0.37037 µM; for inhibition at 3.33333 µM: drug 3.33333 µM; for Relative Light Units (RLU) (FigS1A): replicate wells.

For data set [3], the system named is SARS-CoV-2 fLUC. The experiment in a line: microbe, parasite or virus in culture. In kind it is cell-based. The conditions noted are these: for EC50: Severe acute respiratory syndrome coronavirus 2, NHBE, 24 h, read-out: EC50, inhibition of SARS-CoV-2 replication in NHBE cultures; for % Inhibition (Fig1F): duplicate values; for Relative Light Units (RLU) (FigS1C): duplicates.

Data set [4] in a line: in vitro. As to conditions: human, % Cytotoxicity (Fig1E).
The nature of data set [5]: in vivo. As to conditions: BALB/c, mouse, po, 20 mg/kg.
For data set [6] the following is noted: African green monkeys; cited from earlier work.
The subject of data set [7] is SARS-CoV-2. The format is cell-based.
The conditions of data set [8]: in vivo; cited from earlier work.
Data set [9] has as its system alpha, beta, and gamma SARS-CoV-2 VOCs. The conditions noted are these: cited from earlier work.
Where [10] appears, read: Severe acute respiratory syndrome coronavirus 2, read-out: % Inhibition (Fig1D).
[11] abbreviates: Severe acute respiratory syndrome coronavirus 2, drug 10 µM, read-out: % Inhibition (Fig1D).
Setting [12] is: Severe acute respiratory syndrome coronavirus 2, read-out: Average EC50 (nM) A549-hACE2.
Where [13] appears, read: Severe acute respiratory syndrome coronavirus 2, read-out: average half-maximum effective concentration (EC50), SARS-CoV-2 nLUC replication.
[14] abbreviates: concentration 0.222222 (unit not given).
Where [15] appears, read: concentration 0.666667 (unit not given).
The mark [16] stands for this setting: concentration 2 (unit not given).

The structures appear in SMILES notation. Several values for one entry are separate records, joined by “and”; a condition that tells them apart may be missing. Identical values can stand only once. Like-named read-outs stand apart in the source and are kept apart here.

By inhibition is commonly meant the change of the read-out against control, counted positive when it falls. The half-life is the time needed for the level to fall by half in the phase considered.

Consider `N#C[C@@]1(c2ccc3c(N)ncnn23)O[C@H](CO)[C@@H](O)[C@H]1O` [GS-441524, reference compound], for which the EC50 worked out at 2.1 µM in data set [1], 3370 nM in data set [2] (setting [12]), 3400 nM in [2] (setting [13]) and 2.45 µM in data set [3]. Moreover, the inhibition at 0.00152 µM in data set [2] (setting [10]) was determined as 5.76%. Moreover, the inhibition at 0.00457 µM in [2] (setting [10]) amounted to 7.88%. In addition, the inhibition at 0.01372 µM in data set [2] (setting [10]) turned out to be 0.08%. For the same molecule, the inhibition at 0.04115 µM in [2] (setting [10]) is 5.14%. Also, the inhibition at 0.37037 µM in data set [2] (setting [10]) is -4.48%. Further, in data set [2] (setting [10]), the inhibition at 3.33333 µM worked out at 42%. Besides, the inhibition at 10 µM in data set [2] (setting [11]) came out at 99%. In addition, the “% Inhibition (Fig1F)” value in [3] (concentration 0.205761 (unit not given)) is 16.6269% and 13.9332%; in data set [3] (concentration 0.617284 (unit not given)), 25.1934% and 32.3249%; in data set [3] (concentration 1.85185 (unit not given)), 47.2673% and 45.1609%; in [3] (concentration 5.55556 (unit not given)) it was 89.9387% and 91.061%; in data set [3] (concentration 16.6667 (unit not given)), 99.9354% and 99.9435%; in [3] (concentration 50 (unit not given)) it was 99.9909% and 99.9933%. Further, the cytotoxicity in data set [4] (drug 0.00152 µM) is 4.91%; in [4] (drug 0.00457 µM), 3.11%; in [4] (drug 0.01372 µM), 6.91%; in [4] (drug 0.04115 µM) it was 2.96%; in data set [4] (drug 0.12346 µM) it was 5.66%; in [4] (drug 0.37037 µM) it was 7.63%. The values for the cytotoxicity in [4] (drug 3.33333 µM) and in data set [4] (drug 10 µM) were 9.21% and 7.34%, respectively. Besides, the half-life in data set [5] is approximately 1 h.

`CC(C)C(=O)OCC1OC(C#N)(c2ccc3c(N)ncnn23)C(OC(=O)C(C)C)C1OC(=O)C(C)C` (centres unmarked) [GS-621763]: the EC50 in data set [1] stood at 0.74 µM; in [2] (setting [12]), 2800 nM; in [2] (setting [13]) it was 2800 nM; in [3], 0.125 µM. Further, the “intact ester in plasma” value in data set [6] and in data set [8] was “no or very minimal intact ester observed in plasma” each time. Also, the “antiviral activity / infectious virus titers in HAE cell cultures” value in data set [7] is “confirmed the antiviral activity”; in data set [7] (listed as GS621763), “reduces viral titers”. For the same molecule, the inhibition at 0.00152 µM in data set [2] (setting [10]) is -15.2%. Moreover, in data set [2] (setting [10]), the inhibition at 0.00457 µM is -13.7%. The inhibition at 0.01372 µM in data set [2] (setting [10]) is -12.3%. Further, in [2] (setting [10]), the inhibition at 0.04115 µM was -15.7%. Also, the inhibition at 0.12346 µM in data set [2] (Severe acute respiratory syndrome coronavirus 2, drug 0.12346 µM, read-out: % Inhibition (Fig1D)) was -15.4%. The inhibition at 0.37037 µM in data set [2] (setting [10]) was -23%. In addition, the inhibition at 1.11111 µM in data set [2] (Severe acute respiratory syndrome coronavirus 2, drug 1.11111 µM, read-out: % Inhibition (Fig1D)) is -42%. Further, the inhibition at 3.33333 µM in data set [2] (setting [10]) worked out at 94.8%. For the same molecule, in data set [2] (setting [11]), the inhibition at 10 µM was 99.3%. In addition, the “Relative Light Units (RLU) (FigS1A)” value is 1.49E+08 RLU and 1.35E+08 RLU and 1.13E+08 RLU in data set [2] (drug 0.004 µM); 1.45E+08 RLU and 1.37E+08 RLU and 1.12E+08 RLU in data set [2] (drug 0.04 µM); 1.47E+08 RLU and 1.37E+08 RLU and 1.32E+08 RLU in [2] (drug 0.12 µM); 1.64E+08 RLU and 1.46E+08 RLU and 1.36E+08 RLU in data set [2] (drug 0.37 µM); 1.69E+08 RLU and 1.76E+08 RLU and 1.62E+08 RLU in data set [2] (drug 1.1 µM); 6190000 RLU and 6040000 RLU and 1.36E+07 RLU in [2] (drug 3.3 µM). In data set [2] (drug 10 µM), the “Relative Light Units (RLU) (FigS1A)” value is 708000 RLU and 801000 RLU and 866000 RLU. The “% Inhibition (Fig1F)” value was 65.5149% and 78.3611% in data set [3] (setting [14]); 97.4321% and 98.0439% in data set [3] (setting [15]); 99.8762% and 99.9108% in [3] (setting [16]). The “Relative Light Units (RLU) (FigS1C)” value is 7706513 RLU and 5857613 RLU in [3] (drug concentration 0.00823); 7329653 RLU and 5548473 RLU in data set [3] (drug concentration 0.024691); 5615903 RLU and 3756783 RLU in data set [3] (drug concentration 0.074074); 2451403 RLU and 1538223 RLU in data set [3] (drug concentration 0.222222); 182543 RLU and 139053 RLU in data set [3] (drug concentration 0.666667); 8803.33 RLU and 6343.33 RLU in data set [3] (drug concentration 2). Moreover, the cytotoxicity came out at 5.08% in [4] (drug 0.00152 µM); 2.88% in data set [4] (drug 0.00457 µM); 4.34% in data set [4] (drug 0.01372 µM); 5.67% in data set [4] (drug 0.04115 µM); 6.43% in data set [4] (drug 0.12346 µM); 7.02% in data set [4] (drug 0.37037 µM). In addition, the cytotoxicity in [4] (drug 1.11111 µM) was -1.19%; in [4] (drug 3.33333 µM), 1.11%; in [4] (drug 10 µM), 4.64%. For the same molecule, the “antiviral activity against alpha, beta, and gamma SARS-CoV-2 VOCs” value in data set [9] was “potently antiviral”.

Take `CC(C)C(=O)OC[C@H]1O[C@@H](n2ccc(NO)nc2=O)[C@H](O)[C@@H]1O` [MPV, molnupiravir, reference compound]: the “NHC plasma exposures, dose proportionality” value (MPV 30 mg/kg or 100 mg/kg oral, BID) is on record as “dose proportional increases in NHC plasma exposures”.

`O=c1nc(NO)ccn1[C@@H]1O[C@H](CO)[C@@H](O)[C@H]1O` [NHC]: the “Plasma NHC, FigS5” value (Group 1, time 12.5, individual mice, oral MPV) is 48.2 μM and 56.9 μM (2×) and 55.4 μM.

For `CCC(CC)COC(=O)C(C)NP(=O)(OCC1OC(C#N)(c2ccc3c(N)ncnn23)C(O)C1O)Oc1ccccc1` (centres unmarked) [RDV (GS-5734)], the “% Inhibition (Fig1F)” value in [3] (concentration 0.024691 (unit not given)) was 24.385% and 40.4776%; in data set [3] (concentration 0.074074 (unit not given)), 79.3894% and 81.2356%; in data set [3] (setting [14]), 99.4779% and 99.6549%; in data set [3] (setting [15]) it was 99.9727% and 99.9783%; in data set [3] (setting [16]), 99.9953% and 99.9938%.

Turning to `CCC(CC)COC(=O)[C@H](C)N[P@](=O)(OC[C@H]1O[C@@](C#N)(c2ccc3c(N)ncnn23)[C@H](O)[C@@H]1O)Oc1ccccc1` [RDV, remdesivir, reference compound], the EC50 in data set [1] came out at 0.16 µM; in [2] (setting [12]), 294 nM; in [2] (setting [13]) it was 290 nM; in [3], 0.0371 µM.

The values above are taken from article PMC8995034 (Science Translational Medicine, 2022).
